# Source: US9212151B2, “Heterocyclic compounds useful for kinase inhibition” (Amitech Therapeutic Solutions, Inc., priority 2010, dated 2015)
# Test: MTT cell viability assay, compounds at 5, 1 and 0.2 μM, 48 hours
# Type: cell-based
# Settings: human, A549 tumor cells, 0.2 μM
# Method: MTT assay is used to determine cell proliferation, percent of viable cells, and cytotoxicity. MTT (3-[4,5-dimethylthiazol-2-yl]2,5-diphenyltetrazolium bromide) is a yellow dye, which can be absorbed by the living cells and be reduced to purplish blue formazan crystals by succinate tetrazolium reductase in mitochondria. Formazan formation can therefore be used to assess and determine the survival rate of cells.
# Tumor cells (A549) were plated at 2500 cells/well of a 96-well plate in complete growth medium (DMEM+10% FBS, antibiotic/antimycotic, fungizone, L-glutamine, sodium pyruvate, and non-essential amino acids). The cells were allowed to grow overnight. After cell proliferation, the cells were washed and re-suspended in fresh culture medium and placed in 96 well plates.
# To each of the 96 well plates containing A549 and a control, 5, 1, and 0.2 μM of the exemplary compounds 1-200 were add. The 96 well plates were incubated for 48 hours. Cell viability was measured by adding MTT (Sigma) at 5 mg/ml for 4 h to the cells and then removing the medium and resuspending each well in 50 μl DMSO to solubilize the crystals. The 96-well plates were read on a plate-scanning spectrophotometer (BioTek) at an absorbance of […]. The survival rate of cells was calculated based on the measurement of absorption at the 570 nm wavelength by enzyme immunoassay analyzer.
row,Compound,"viability at 48 h, 0.2 µM"
1,COc1ccc2c(Oc3ccc(-c4nnc(Nc5cccc(C(F)(F)F)c5)[nH]4)cc3)ncnc2c1 [Compound 70],> 70%
2,COc1nccc(Oc2ccc(-c3nnc(Nc4cccc(C(F)(F)F)c4)[nH]3)cc2)n1 [Compound 71],> 70%
3,COc1nc(N)cc(Oc2ccc(-c3nnc(Nc4cccc(C(F)(F)F)c4)[nH]3)cc2)n1 [Compound 72],> 70%
4,COc1cc(Oc2ccc(-c3nnc(Nc4cccc(C(F)(F)F)c4)[nH]3)cc2)ccn1 [Compound 73],> 70%
5,Cc1cc(Oc2ccc(-c3nnc(Nc4cccc(C(F)(F)F)c4)[nH]3)cc2)ccn1 [Compound 74],> 70%
6,COc1nc(Oc2ccc(-c3nnc(Nc4cccc(C(F)(F)F)c4)[nH]3)cc2)c2cc[nH]c2n1 [Compound 75],> 70%
7,COc1cc(Oc2ccc(-c3nnc(Nc4cccc(C(F)(F)F)c4)[nH]3)cc2)ncn1 [Compound 76],> 70%
8,CCc1cc(Oc2ccc(-c3nnc(Nc4cccc(C(F)(F)F)c4)[nH]3)cc2)nc(N)n1 [Compound 77],> 70%
9,COCCOc1nc(N)cc(Oc2ccc(-c3nnc(Nc4cccc(C(F)(F)F)c4)[nH]3)cc2)n1 [Compound 78],> 70%
10,CCOc1nc(N)cc(Oc2ccc(-c3nnc(Nc4cccc(C(F)(F)F)c4)[nH]3)cc2)n1 [Compound 79],> 70%
11,CC(C)(C)Sc1nc(N)cc(Oc2ccc(-c3nnc(Nc4cccc(C(F)(F)F)c4)[nH]3)cc2)n1 [Compound 80],> 70%
12,CCc1nc(N)cc(Oc2ccc(-c3nnc(Nc4cccc(C(F)(F)F)c4)[nH]3)cc2)n1 [Compound 81],> 70%
13,Cc1nc(N)cc(Oc2ccc(-c3nnc(Nc4cccc(C(F)(F)F)c4)[nH]3)cc2)n1 [Compound 82],> 70%
14,FC(F)(F)c1cccc(Nc2nnc(-c3ccc(Oc4cncnc4)cc3)[nH]2)c1 [Compound 83],> 70%
15,Nc1nc(OCC2CC2)cc(Oc2ccc(-c3nnc(Nc4cccc(C(F)(F)F)c4)[nH]3)cc2)n1 [Compound 84],> 70%
16,FC(F)(F)c1cccc(Nc2nnc(-c3cccc(Oc4ccnc5[nH]ccc45)c3)[nH]2)c1 [Compound 85],> 70%
17,Nc1cc(Oc2cccc(-c3nnc(Nc4cccc(C(F)(F)F)c4)[nH]3)c2)c2ccccc2n1 [Compound 86],> 70%
18,COc1ccc2c(Oc3cccc(-c4nnc(Nc5cccc(C(F)(F)F)c5)[nH]4)c3)ncnc2c1 [Compound 87],> 70%
19,COc1nccc(Oc2cccc(-c3nnc(Nc4cccc(C(F)(F)F)c4)[nH]3)c2)n1 [Compound 88],> 70%
20,COc1nc(N)cc(Oc2cccc(-c3nnc(Nc4cccc(C(F)(F)F)c4)[nH]3)c2)n1 [Compound 89],> 70%
21,COc1cc(Oc2cccc(-c3nnc(Nc4cccc(C(F)(F)F)c4)[nH]3)c2)ccn1 [Compound 90],> 70%
22,Cc1cc(Oc2cccc(-c3nnc(Nc4cccc(C(F)(F)F)c4)[nH]3)c2)ccn1 [Compound 91],> 70%
23,COc1nc(Oc2cccc(-c3nnc(Nc4cccc(C(F)(F)F)c4)[nH]3)c2)c2cc[nH]c2n1 [Compound 92],> 70%

# Same assay, conditions: human, A549 tumor cells, 1 μM
row,Compound,"viability at 48 h, 1 µM"
1,COc1ccc2c(Oc3ccc(-c4nnc(Nc5cccc(C(F)(F)F)c5)[nH]4)cc3)ncnc2c1 [Compound 70],> 70%
2,COc1nccc(Oc2ccc(-c3nnc(Nc4cccc(C(F)(F)F)c4)[nH]3)cc2)n1 [Compound 71],> 70%
3,COc1nc(N)cc(Oc2ccc(-c3nnc(Nc4cccc(C(F)(F)F)c4)[nH]3)cc2)n1 [Compound 72],> 70%
4,COc1cc(Oc2ccc(-c3nnc(Nc4cccc(C(F)(F)F)c4)[nH]3)cc2)ccn1 [Compound 73],> 70%
5,Cc1cc(Oc2ccc(-c3nnc(Nc4cccc(C(F)(F)F)c4)[nH]3)cc2)ccn1 [Compound 74],< 50%
6,COc1nc(Oc2ccc(-c3nnc(Nc4cccc(C(F)(F)F)c4)[nH]3)cc2)c2cc[nH]c2n1 [Compound 75],> 70%
7,COc1cc(Oc2ccc(-c3nnc(Nc4cccc(C(F)(F)F)c4)[nH]3)cc2)ncn1 [Compound 76],> 70%
8,CCc1cc(Oc2ccc(-c3nnc(Nc4cccc(C(F)(F)F)c4)[nH]3)cc2)nc(N)n1 [Compound 77],50 to 70%
9,COCCOc1nc(N)cc(Oc2ccc(-c3nnc(Nc4cccc(C(F)(F)F)c4)[nH]3)cc2)n1 [Compound 78],> 70%
10,CCOc1nc(N)cc(Oc2ccc(-c3nnc(Nc4cccc(C(F)(F)F)c4)[nH]3)cc2)n1 [Compound 79],< 50%
11,CC(C)(C)Sc1nc(N)cc(Oc2ccc(-c3nnc(Nc4cccc(C(F)(F)F)c4)[nH]3)cc2)n1 [Compound 80],50 to 70%
12,CCc1nc(N)cc(Oc2ccc(-c3nnc(Nc4cccc(C(F)(F)F)c4)[nH]3)cc2)n1 [Compound 81],50 to 70%
13,Cc1nc(N)cc(Oc2ccc(-c3nnc(Nc4cccc(C(F)(F)F)c4)[nH]3)cc2)n1 [Compound 82],> 70%
14,FC(F)(F)c1cccc(Nc2nnc(-c3ccc(Oc4cncnc4)cc3)[nH]2)c1 [Compound 83],> 70%
15,Nc1nc(OCC2CC2)cc(Oc2ccc(-c3nnc(Nc4cccc(C(F)(F)F)c4)[nH]3)cc2)n1 [Compound 84],> 70%
16,FC(F)(F)c1cccc(Nc2nnc(-c3cccc(Oc4ccnc5[nH]ccc45)c3)[nH]2)c1 [Compound 85],> 70%
17,Nc1cc(Oc2cccc(-c3nnc(Nc4cccc(C(F)(F)F)c4)[nH]3)c2)c2ccccc2n1 [Compound 86],> 70%
18,COc1ccc2c(Oc3cccc(-c4nnc(Nc5cccc(C(F)(F)F)c5)[nH]4)c3)ncnc2c1 [Compound 87],> 70%
19,COc1nccc(Oc2cccc(-c3nnc(Nc4cccc(C(F)(F)F)c4)[nH]3)c2)n1 [Compound 88],> 70%
20,COc1nc(N)cc(Oc2cccc(-c3nnc(Nc4cccc(C(F)(F)F)c4)[nH]3)c2)n1 [Compound 89],> 70%
21,COc1cc(Oc2cccc(-c3nnc(Nc4cccc(C(F)(F)F)c4)[nH]3)c2)ccn1 [Compound 90],> 70%
22,Cc1cc(Oc2cccc(-c3nnc(Nc4cccc(C(F)(F)F)c4)[nH]3)c2)ccn1 [Compound 91],> 70%
23,COc1nc(Oc2cccc(-c3nnc(Nc4cccc(C(F)(F)F)c4)[nH]3)c2)c2cc[nH]c2n1 [Compound 92],> 70%

# Same assay, conditions: human, A549 tumor cells, 5 μM
row,Compound,"viability at 48 h, 5 µM"
1,COc1ccc2c(Oc3ccc(-c4nnc(Nc5cccc(C(F)(F)F)c5)[nH]4)cc3)ncnc2c1 [Compound 70],< 50%
2,COc1nccc(Oc2ccc(-c3nnc(Nc4cccc(C(F)(F)F)c4)[nH]3)cc2)n1 [Compound 71],50 to 70%
3,COc1nc(N)cc(Oc2ccc(-c3nnc(Nc4cccc(C(F)(F)F)c4)[nH]3)cc2)n1 [Compound 72],< 50%
4,COc1cc(Oc2ccc(-c3nnc(Nc4cccc(C(F)(F)F)c4)[nH]3)cc2)ccn1 [Compound 73],< 50%
5,Cc1cc(Oc2ccc(-c3nnc(Nc4cccc(C(F)(F)F)c4)[nH]3)cc2)ccn1 [Compound 74],< 50%
6,COc1nc(Oc2ccc(-c3nnc(Nc4cccc(C(F)(F)F)c4)[nH]3)cc2)c2cc[nH]c2n1 [Compound 75],> 70%
7,COc1cc(Oc2ccc(-c3nnc(Nc4cccc(C(F)(F)F)c4)[nH]3)cc2)ncn1 [Compound 76],50 to 70%
8,CCc1cc(Oc2ccc(-c3nnc(Nc4cccc(C(F)(F)F)c4)[nH]3)cc2)nc(N)n1 [Compound 77],50 to 70%
9,COCCOc1nc(N)cc(Oc2ccc(-c3nnc(Nc4cccc(C(F)(F)F)c4)[nH]3)cc2)n1 [Compound 78],< 50%
10,CCOc1nc(N)cc(Oc2ccc(-c3nnc(Nc4cccc(C(F)(F)F)c4)[nH]3)cc2)n1 [Compound 79],< 50%
11,CC(C)(C)Sc1nc(N)cc(Oc2ccc(-c3nnc(Nc4cccc(C(F)(F)F)c4)[nH]3)cc2)n1 [Compound 80],< 50%
12,CCc1nc(N)cc(Oc2ccc(-c3nnc(Nc4cccc(C(F)(F)F)c4)[nH]3)cc2)n1 [Compound 81],< 50%
13,Cc1nc(N)cc(Oc2ccc(-c3nnc(Nc4cccc(C(F)(F)F)c4)[nH]3)cc2)n1 [Compound 82],50 to 70%
14,FC(F)(F)c1cccc(Nc2nnc(-c3ccc(Oc4cncnc4)cc3)[nH]2)c1 [Compound 83],> 70%
15,Nc1nc(OCC2CC2)cc(Oc2ccc(-c3nnc(Nc4cccc(C(F)(F)F)c4)[nH]3)cc2)n1 [Compound 84],> 70%
16,FC(F)(F)c1cccc(Nc2nnc(-c3cccc(Oc4ccnc5[nH]ccc45)c3)[nH]2)c1 [Compound 85],50 to 70%
17,Nc1cc(Oc2cccc(-c3nnc(Nc4cccc(C(F)(F)F)c4)[nH]3)c2)c2ccccc2n1 [Compound 86],> 70%
18,COc1ccc2c(Oc3cccc(-c4nnc(Nc5cccc(C(F)(F)F)c5)[nH]4)c3)ncnc2c1 [Compound 87],> 70%
19,COc1nccc(Oc2cccc(-c3nnc(Nc4cccc(C(F)(F)F)c4)[nH]3)c2)n1 [Compound 88],> 70%
20,COc1nc(N)cc(Oc2cccc(-c3nnc(Nc4cccc(C(F)(F)F)c4)[nH]3)c2)n1 [Compound 89],> 70%
21,COc1cc(Oc2cccc(-c3nnc(Nc4cccc(C(F)(F)F)c4)[nH]3)c2)ccn1 [Compound 90],> 70%
22,Cc1cc(Oc2cccc(-c3nnc(Nc4cccc(C(F)(F)F)c4)[nH]3)c2)ccn1 [Compound 91],50 to 70%
23,COc1nc(Oc2cccc(-c3nnc(Nc4cccc(C(F)(F)F)c4)[nH]3)c2)c2cc[nH]c2n1 [Compound 92],> 70%
